In PubChem BioAssay AID1902 (Broad Institute, 2009):
Activity calls are given as the source filed them.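 The calls were made as follows: active = EC50 no more than a set limit of log units above the highest dose; inactive = the rest.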

Biological target: S. pyogenes SKKanGAS, kanamycin survival, BacTiterGlo, 6 h
Test: S. pyogenes SKKanGAS kanamycin growth inhibitors – SKKanGAS strain, luminescence, dose confirmation, streptokinase promoter inhibitor project, dose response (AID 1902);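 also: lower survival reflects blocked streptokinase promoter driving kanamycin resistance gene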

Row | Structure (SMILES) | EC50
1 | C/C(=N\NC(=S)NCCc1ccccc1)c1ccc(Cl)cc1Cl | 6.56 µM
2 | Cc1cc(C(=O)Nc2nc(-c3ccccn3)cs2)ccc1[N+](=O)[O-] | 1.69 µM
3 | COc1ccc(CN2C(=O)c3ccccc3C(/C=N/OCc3ccc(Cl)cc3)C2=O)cc1 (stereo unspecified) | 1.11 µM
4 | Cc1ccc(/C=C/C(=O)c2ccccc(=O)c2O)cc1C | 4.04 µM
5 | CN(C)CCOc1ccc(/C(=C(/CCCl)c2ccccc2)c2ccccc2)cc1 | 4.95 µM
6 | O=C(COc1ccc(Cl)cc1Cl)NNC(=S)NC(=O)c1ccco1 | 0.102 µM
7 | Brc1ccc(C2C3=C(Nc4ncnn42)c2ccccc2OC3c2ccncc2)cc1 (stereo unspecified) | 10.1 µM
8 | N=c1ccn2c(n1)O[C@H]1[C@H](O)[C@@H](CO)O[C@H]12 | 4.89 µM
9 | c1ccc2c(c1)nc(Nc1ccc(N3CCCCC3)cc1)c1nncn12 | 6.03 µM
10 | Cc1cnc(NC(=O)c2cc3c(C)nn(-c4ccccc4)c3s2)s1 | 0.831 µM
11 | O=[N+]([O-])c1cc(Cl)cc(/C=N/Nc2nc3ccccc3s2)c1O | 1.54 µM
12 | CN1CCN(C(c2ccc(Cl)cc2)c2cc(Cl)c3cccnc3c2O)CC1 (stereo unspecified) | 1.46 µM
13 | COc1ccc(C(=O)NNC(=S)NC(=O)c2ccco2)cc1 | 2.29 µM
14 | O=C(Nc1nc(-c2ccccn2)cs1)C12CC3CC(CC(O)(C3)C1)C2 | 1.44 µM
15 | CC(C)c1nc(N2CCCC2)c(C#N)c2c1CCCC2 | 4.1 µM
16 | CCC(NC(=O)Nc1nnc(C(F)(F)F)s1)(C(F)(F)F)C(F)(F)F | 1.42 µM
17 | O=C(NCC1CCCO1)c1cc2c([nH]c3ccccc32)c(-c2cccc(Cl)c2)n1 (stereo unspecified) | 4.27 µM
18 | CC(C)(C)OC(=O)[C@H](Cc1ccccc1)NC(=O)c1[nH]cnc1C(=O)Nc1cccc(Cl)c1 | 2.4 µM
19 | N=C1SCC(=O)N1c1ncc(Cc2ccc(F)cc2)s1 | 1 µM
20 | Oc1c(Cl)cc(Cl)c2c1NCCC2 | 5.37 µM
21 | Cc1ccc(OCCSc2nc(NC(C)C)nc(NC(C)C)n2)cc1 | 4.4 µM
22 | COc1ccc(C2/C=C\CN(C(=O)c3ccccc3)CC(=O)N2Cc2ccc(F)cc2)cc1 (stereo unspecified) | > 15 µM (inactive)

Row | Structure (SMILES) | EC50
23 | Cc1cc(C)nc(SCC(=O)NC2=NN=C(c3ccc(Br)cc3)CS2)n1 | 3.07 µM
24 | Cc1cccc(NC2=Nc3ccccc3N3C2=Nc2c(c(C)nn2-c2ccccc2)C3c2ccc(O)c(O)c2)c1 (stereo unspecified) | 4.54 µM
25 | Oc1nc(Nc2ccc(Cl)cc2Cl)sc1/C=C1\C=Nc2ccccc21 | 1.76 µM
26 | COc1cccc(-c2nc(N3CC(C)CC(C)C3)c3ccccc3n2)c1O (stereo unspecified) | 3.05 µM
27 | CCOC(=O)C1=NN(C(=O)c2ccc(C)cc2)C(O)(c2ccc(Cl)cc2)C1 (stereo unspecified) | 3.06 µM
28 | N#Cc1nc(-c2ccccc2Cl)oc1N1CCN(C(=O)c2ccco2)CC1 | > 15 µM (inactive)
29 | Cc1cccc(N2CCN(C(=O)c3cc4n(n3)C(C(F)(F)F)CC(c3ccco3)N4)CC2)c1C (stereo unspecified) | 4.2 µM
30 | O=C(O)c1ccc(N/N=C/c2ccc(-c3ccc(Cl)cc3Cl)o2)cc1 | 1.94 µM
31 | O=c1cc(-c2ccccc2)nc2c(-c3ccccc3)c(C(F)(F)F)[nH]n12 | 3.23 µM
32 | Cc1cc(C)n(-c2nc(SCC(=O)O)c3c4c(sc3n2)CCCC4)n1 | 5.93 µM
33 | O=C(c1ccc2c3n(nc2c1)-c1ccccc1CO3)N1CCCCC1 | 9.38 µM
34 | COc1ccc(C(=O)N/N=C/c2cc(Br)ccc2O)cc1OC | 1.28 µM
35 | Cc1cc(/C=N/n2cnnc2)c(C)n1-c1ccc(OCc2ccc(Cl)cc2)cc1 | 6.19 µM
36 | O=C(CSc1nnc(NC(=O)c2cccc(Cl)c2)s1)NCC1CCCO1 (stereo unspecified) | > 15 µM (inactive)
37 | COc1ccccc1N1CCN(C(=O)/C=C/c2c(Cl)nc3ccccn23)CC1 | 1.6 µM
38 | O=C(COc1ccccc1-c1ccccc1)N/N=C/c1ccc2ccccc2c1 | 6.47 µM
39 | Cc1cccc2nc(COc3ccc4ccccc4c3Br)cn12 | 4.94 µM
40 | Cc1ccc(NC(=O)NCc2ccccn2)cc1Cl | > 15 µM (inactive)
41 | Oc1c(C(c2ccc(Cl)cc2)N2CCCC2)cc(Cl)c2cccnc12 (stereo unspecified) | 1.53 µM
42 | COc1ccccc1NC(=O)Nc1nc(CC(=O)Nc2cc(F)ccc2F)cs1 | 8.85 µM
43 | COc1ccc(-c2ncn(CCC#N)c2[N+](=O)[O-])cc1 | 2.72 µM
44 | CCC1CCCCN1S(=O)(=O)c1ccc(C(=O)Nc2nnc(C3=COCCO3)o2)cc1 (stereo unspecified) | 5.72 µM

Row | Structure (SMILES) | EC50
45 | FC(F)(F)c1cccc(NC(=S)Nc2ccc(Cl)c(Cl)c2)c1 | 2.45 µM
46 | c1ccc(CNc2nc(-c3ccccn3)nc3ccccc23)cc1 | 0.418 µM
47 | Clc1ccc(C2C3=C(Nc4ncnn42)c2ccccc2CC3)cc1 (stereo unspecified) | 11.4 µM
48 | NNC(=O)CSc1nc(-c2ccccc2)nc2c1CCCC2 | > 15 µM (inactive)
49 | Cc1c(Cc2ccccc2)c(=O)oc2cc(OCc3ccc(C(=O)O)cc3)ccc12 | 5.9 µM
50 | O=C(CN1CCCC1)Nc1ccc(NC(=O)Nc2ccccc2)cc1 | > 15 µM (inactive)
51 | Cc1cc(NC(=O)c2ccc(C)s2)n(-c2nc3ccccc3[nH]2)n1 | 3.44 µM
52 | Cc1nn2c(NCc3ccccn3)cc(C(C)(C)C)nc2c1-c1ccccc1 | 1.54 µM
53 | CCc1c(C)nc2cc(-c3ccc(OC)c(OC)c3)nn2c1N1CCC(C)CC1 | 7.56 µM
54 | CCOC(=O)c1cc(-c2ccc3c(c2)OCCO3)nc2c1c(C)nn2CCC#N | 3.42 µM
55 | Nc1ccc(-c2nc3nc(N)nc(N)c3nc2-c2ccc(N)cc2)cc1 | 3.77 µM
56 | Cc1ccc(NC(=S)c2nc3ccccc3[nH]2)c(C)c1 | 1.74 µM
57 | CCCCSc1ccc2nc(-c3ccc(C#N)cc3)cn2c1 | 7.72 µM
58 | COC(=O)c1c(NC(NC(=O)C(C)(C)C)C(Cl)(Cl)Cl)sc2c1CCC2 (stereo unspecified) | 3.28 µM
59 | O=C(O)CCSc1ccc([N+](=O)[O-])cc1[N+](=O)[O-] | > 15 µM (inactive)
60 | O=C(NCc1ccc(C(F)(F)F)cc1)c1ccc2c(c1)S(=O)(=O)c1ccccc1C2=O | > 15 µM (inactive)
61 | CCCSc1nsc(NC(=O)Nc2ccc(F)cc2F)n1 | 5.66 µM
62 | COc1ccc(/C=C/c2ccc3cccc(O)c3n2)cc1Br | 0.419 µM
63 | COc1ccc(C(=O)NNC(=S)NC(=O)c2ccc(F)cc2)cc1Br | 0.127 µM
64 | CCOC(=O)c1nc(Nc2ccc(Nc3ccccc3)cc2)c2ccccc2n1 | 9.84 µM
65 | C/C(N)=C(/C#N)C(=O)CSc1nc2scc(-c3ccc(F)cc3)c2c(=O)n1C | 2.1 µM
66 | COc1cc([N+](=O)[O-])cc(/C=N/NC(=O)C(C)Nc2cccc(C)c2)c1O (stereo unspecified) | 8.83 µM

Row | Structure (SMILES) | EC50
67 | CC1CCCN(S(=O)(=O)c2ccc(C(=O)Nc3nnc(C4=COCCO4)o3)cc2)C1 (stereo unspecified) | 5.27 µM
68 | Cc1cccc(C)c1OCC(O)Cn1c2ccccc2c2ccccc21 (stereo unspecified) | 3.83 µM
69 | COc1ccc(-c2nc(-c3ccc4c(c3)OCO4)[nH]c2-c2ccc(OC)cc2)cc1 | 4.71 µM
70 | COC(=O)c1cccc(NC(=S)NCc2ccc(Cl)cc2)c1 | 9.26 µM
71 | Cc1nc(Nc2nc(-c3ccccc3)cc(=O)[nH]2)nc2ccccc12 | 5.67 µM
72 | Cn1ncc2c(Nc3ccc(Cl)c(Cl)c3)ncnc21 | 4.82 µM
73 | Cc1ccc(CNC(=O)c2ccc([N+](=O)[O-])o2)cc1 | 4.67 µM
74 | CCC1CCCCN1S(=O)(=O)c1ccc(NC(=O)c2nc(S(C)(=O)=O)ncc2Cl)cc1 (stereo unspecified) | 9.42 µM
75 | O=C(CCN1C(=O)/C(=C/c2ccccc2Cl)SC1=S)NNC(=O)c1ccccc1O | 3.35 µM
76 | O=c1c2ccccc2c(-c2ccccc2)nn1Cc1c(Cl)cccc1Cl | 6.08 µM
77 | Cc1cnn(-c2nc(-c3ccccc3)cc(-c3ccccc3)n2)c1 | 4.51 µM
78 | NS(=O)(=O)c1ccc(N2N=C(c3ccc(Br)cc3)CC2c2ccc(F)cc2)cc1 (stereo unspecified) | 2.21 µM
79 | Brc1cc(-c2ccccc2)nc(-c2ccccc2)n1 | 12.1 µM
80 | Cc1nn(C)c(Cl)c1CN1CCCC(C(=O)Nc2ccc(-c3cscn3)cc2)C1 (stereo unspecified) | > 15 µM (inactive)
81 | CSc1cccc(-c2nnc(NC(=O)c3cccc(N4C(=O)CCC4=O)c3)o2)c1 | 2.04 µM
82 | CN(Cc1ccc(N(C)C)cc1)C(=O)c1cc2ccccc2o1 | > 15 µM (inactive)
83 | COc1ccc(Cl)cc1NC(=O)CN1CCC(n2nnc3cc(C)ccc32)CC1 | 10.8 µM
84 | CCCCc1ccc(NC(=S)NCCc2ccc(F)cc2)cc1 | 5.7 µM
85 | CCCCC[n+]1ccn(C2=C([O-])c3ccccc3C(=O)/C2=N\S(=O)(=O)c2ccc(Br)cc2)c1 | 2.87 µM
86 | COc1ccc(C(=O)NNC(=S)NC(=O)c2cccs2)cc1 | 2.2 µM
87 | C/C(=N\NC(=O)COc1ccccc1-c1ccccc1)c1ccc(O)cc1O | 3.89 µM
88 | CCOC(=O)N1CCN(C(=O)c2ccc3c(c2)N(C)C(=O)/C(=C\c2ccc(OCC)c(OC)c2)S3)CC1 | 0.593 µM

Row | Structure (SMILES) | EC50
89 | COc1ccc(CN(C)S(=O)(=O)c2nnc(NC(=O)c3ccccc3Br)s2)cc1 | 3.51 µM
90 | O=c1cc(-c2ccccc2Cl)oc2ccc([N+](=O)[O-])c(O)c12 | 3.25 µM
91 | CCn1cc(C(=O)O)c(=O)c2cc(F)c(N/N=C/c3ccccc3[N+](=O)[O-])cc21 | 4.39 µM
92 | O=C(Nc1ccccc1)c1nnsc1S(=O)c1ccc(Cl)cc1 (stereo unspecified) | 1.34 µM
93 | C=C(C)[C@@H]1CCC2(C(=O)O)CC[C@]3(C)[C@H](CC[C@@H]4[C@@]5(C)CCC(=O)C(C)(C)[C@@H]5CC[C@]43C)[C@@H]12 (stereo partly specified) | 1.85 µM
94 | CCN(CC(=O)NCC1CCCO1)S(=O)(=O)c1ccc(Cl)cc1 (stereo unspecified) | > 15 µM (inactive)
95 | C=C1SC(=Nc2ccccc2Cl)N(C(=O)c2sc3ccccc3c2Cl)C12CCCCC2 | 3.48 µM
96 | COc1ccccc1C(=O)Nc1nnc(SCC(=O)NCC2CCCO2)s1 (stereo unspecified) | > 15 µM (inactive)
97 | O=C(N/N=C/c1sc2ccccc2c1O)c1cccc2ccccc12 | 2.52 µM
98 | O=C(OCc1ccc(COC(=O)c2ccc(O)cc2)cc1)c1ccc(O)cc1 | 2.21 µM
99 | COCCCn1c(N)c(C(=O)Nc2ccccc2)c2nc3ccccc3nc21 | 11.8 µM
100 | C/C(=N/NC(=O)CNC(=O)c1cccnc1)c1cccc([N+](=O)[O-])c1 | > 15 µM (inactive)
101 | CO[C@H]1C=CO[C@@]2(C)Oc3c(C)c(O)c4c(O)c(c5c(nc6cc(C)ccn65)c4c3C2=O)NC(=O)C(C)=CC=C[C@H](C)[C@H](O)[C@@H](C)[C@@H](O)[C@@H](C)[C@H](OC(C)=O)[C@@H]1C | < 0.06 µM
102 | Cc1ccc(Cn2c(C(CO)Nc3nc(-c4ccc(F)cc4)cs3)nc3ccccc32)cc1 (stereo unspecified) | 3.35 µM
103 | COc1cc(OC)cc(C(=O)NC(=S)N2CCN(c3ccc(C(F)(F)F)cc3[N+](=O)[O-])CC2)c1 | 1.28 µM
104 | COc1ccc(C(=O)CC(=O)C(=O)Nc2ccccc2C(F)(F)F)cc1 | 2.05 µM
105 | O=c1cc(-c2ccccc2Cl)oc2c(NS(=O)(=O)c3cc(Cl)cc(Cl)c3O)ccc(O)c12 | 0.552 µM
106 | Cc1onc(-c2ccccc2)c1C(=O)NC(=S)NNC(=O)c1ccco1 | 0.943 µM
